Measurements: patent US8604085B2, “Bupropion hydrobromide polymorphs” (Valeant International Bermuda, priority 2008, dated 2013)

Columns and labels:
Format in all cases: physicochemical
[1] = TGA and DSC characterization
Experimental: The PXRD diffraction patterns were obtained on X-ray powder diffraction PANalytical X′pert Pro equipped with X′Celerator, in a measurement range between 3 and 40 2 theta. All the DSC experiments were performed with a DSC 7 Perkin Elmer instrument in a temperature range between 25° C. and 250° C. with a heating rate of 10° C./min.
All the TGA experiments were conducted with a TGA 7 Perkin Elmer instrument in a temperature range between 39° C. and 310° C. with a heating rate of 10° C./min.
PXRD, DSC, TGA and IR analyses were obtained for Bupropion Hydrobromide Polymorph Form I, Form II, Form III, Form IV, Form V, Form VI, and Form VII. PXRD analyses were obtained for the amorphous form. With respect to the PXRD analyses, the Peak List is shown for Form I, Form II, Form III, Form IV, Form V, Form VI, Form VII and the amorphous form in Table 56, Table 57, Table 58, Table 59, Table 60, Table 61, Table 62 and Table 63 respectively.

[2] = Slurry experiments at room temperature (thermodynamic stability of crystal forms, X-ray diffraction); conditions: for Slurry Result / Slurry result, large scale: room temperature; for Slurry Result: form by XRD; for Slurry result, large scale: 0.5 g of powder in 10 mL
Experimental: Slurry experiments of Form I were performed at room temperature to verify if Form I is the thermodynamic crystal form. 0.050 g of Form I was suspended in 2 ml of solvent and stirred for 1 week. The sample was filtered and analyzed by X-ray diffraction. In the large majority of the experiments, Form I converts into Form II. […] By 1,4-Dioxane, a new crystal form was obtained named Form V. See Table 46 for the Form I slurries results (7 days).
Further slurry experiments of Form I were performed at room temperature using 0.5 g of powder in 10 mL of solvent to confirm the results obtained even in large scale.
0.050 g of Form I were suspended in 2 ml of solvent and stirred at room temperature for 4 weeks (30 days). The sample was filtered and analyzed by X-ray diffraction. By 1,4-Dioxane, Form V was obtained. By tetrahydrofuran, Form II and Form VII were obtained. […] See Table 47 for the Form I slurries results (30 days).
(§1) Slurry experiments of mixtures of Form I and Form II were performed at room temperature to verify their thermodynamic stability. 0.040 g of Form I+0.040 g of Form II were suspended in 4 ml of solvent and stirred for 1 week (7 days). The samples were filtered and analyzed by X-ray diffraction. By 1,4-Dioxane, Form V was obtained. […] See Table 48 for the Form I+Form II slurries results (7 days).
as §1, with “II” for “I”, “III” for “II”, “II+0.040” for “I+0.040”, “49” for “48”, “II+Form III” for “I+Form II”
as §1, with “II” for “I”, “IV” for “II”, “II+0.040” for “I+0.040”, “50” for “48”, “II+Form IV” for “I+Form II”
as §1, with “II” for “I”, “V” for “II”, “II+0.040” for “I+0.040”, “51” for “48”, “II+Form V” for “I+Form II”
as §1, with “II” for “I”, “VI” for “II”, “II+0.040” for “I+0.040”, “52” for “48”, “II+Form VI” for “I+Form II”
as §1, with “II” for “I”, “VII” for “II”, “II+0.040” for “I+0.040”, “53” for “48”, “II+Form VII” for “I+Form II”

[3] = Forced degradation studies of the API's in the presence of standard excipients; conditions: with standard excipients; about 24 and about 48 hours at about 55° C., about 55° C. and 100% relative humidity, about 105° C.
Experimental: Forced degradation studies were also performed on bupropion hydrobromide and bupropion hydrochloride API's in the presence of standard excipients used in pharmaceutical formulations.

Br.CC(NC(C)(C)C)C(=O)c1cccc(Cl)c1 (single isomer, unassigned) [Form I]
TGA (mass change) ([1]; successive mass-loss steps listed per polymorph): −100.04%
DSC (onset ° C.) ([1]; successive thermal events listed per polymorph): 236.81 °C
Thermodynamic stability of the crystal form as shown by slurry experiments [2]: metastable form
Slurry Result ([2]; 1,2-Dimethoxy Ethane, 7 days): Form II
Slurry Result ([2]; 1,2-Dimethoxy Ethane, 30 days): Form II
Slurry Result ([2]; 1,4-Dioxane, 7 days): Form V
Slurry Result ([2]; 1,4-Dioxane, 30 days): Form V
Slurry Result ([2]; 1-Octanol, 7 days): Form II
Slurry Result ([2]; 1-Octanol, 30 days): Form II
Slurry Result ([2]; 3-Pentanone, 7 days): Form II
Slurry Result ([2]; 4-Methyl-2-Pentanone, 7 days): Form II
Slurry Result ([2]; 4-Methyl-2-Pentanone, 30 days): Form II
Slurry Result ([2]; Acetone, 7 days): Form II
Slurry Result ([2]; Acetone, 30 days): Form II
Slurry Result ([2]; Benzonitrile, 7 days): Form II + VII
Slurry Result ([2]; Cyclohexane, 7 days): Form I
Slurry Result ([2]; Cyclohexane, 30 days): Form II
Slurry Result ([2]; Diethyl Carbonate, 7 days): Form II
Slurry Result ([2]; Diethyl Carbonate, 30 days): Form II
Slurry Result ([2]; Diethyl Ether, 30 days): Form II
Slurry Result ([2]; Diethyl ether, 7 days): Form II
Slurry Result ([2]; Ethyl Acetate (second line of the table), 30 days): Form II
Slurry result, large scale ([2]; Ethyl Acetate): convert into Form II
Slurry Result ([2]; Ethyl Benzoate, 7 days): Form II
Slurry Result ([2]; Ethyl Formate, 7 days): Form II
Slurry Result ([2]; Ethyl Formate, 30 days): Form II
Slurry Result ([2]; Ethyl acetate, 7 days): Form II
Slurry Result ([2]; Ethyl acetate, 30 days): Form II
Slurry Result ([2]; Iso-Propyl Ether, 7 days): Form II
Slurry Result ([2]; Iso-Propyl Ether, 30 days): Form II
Slurry Result ([2]; Isopropyl Acetate, 7 days): Form II
Slurry Result ([2]; Isopropyl Acetate, 30 days): Form II
Slurry Result ([2]; Mesitylene, 7 days): Form II
Slurry Result ([2]; Methyl Benzoate, 7 days): Form II
Slurry Result ([2]; Methyl Benzoate, 30 days): Form II
Slurry Result ([2]; Methyl Ethyl Ketone, 7 days): Form II
Slurry Result ([2]; Methyl Ethyl Ketone, 30 days): Form II
Slurry Result ([2]; Methyl-Cyclohexane, 7 days): Form I
Slurry Result ([2]; Methyl-Cyclohexane, 30 days): Form II
Slurry Result ([2]; Nitrobenzene, 7 days): Form II
Slurry Result ([2]; Propyl Acetate, 7 days): Form II
Slurry Result ([2]; Tert-Butanol, 7 days): Form II
Slurry Result ([2]; Tetrahydrofuran, 7 days): Form II
Slurry Result ([2]; Tetrahydrofuran, 30 days): Form II + VII
Slurry Result ([2]; Toluene, 7 days): Form II
Slurry Result ([2]; Toluene, 30 days): Form II
Slurry Result ([2]; n-Hexan, 7 days): Form II
Slurry Result ([2]; n-Hexan, 30 days): Form II
Slurry result, large scale ([2]; p-Xylene): convert into Form II
Slurry Result ([2]; p-Xylene, 7 days): Form II
Slurry Result ([2]; p-Xylene, 30 days): Form II
Slurry Result ([2]; t-Butyl Methyl Ether, 7 days): Form II
Slurry Result ([2]; t-Butyl Methyl Ether, 30 days): Form II

Br.CC(NC(C)(C)C)C(=O)c1cccc(Cl)c1 (stereo not drawn) [Bupropion hydrobromide, 3′-chloro-2-t-butylamino-1-propiophenone hydrobromide]
amount of degradation (bupropion degradation impurities) versus bupropion hydrochloride [3]: lowest amount of degradation
